Results on 35 molecules are retold here after patent US20140155445A1, “Compounds and Methods for Treating Cancer and Diseases of the Central Nervous System” (Osta Biotechnologies Inc., priority 2007, published 2014).

The structures appear in SMILES notation. Where a name gives a salt, the structure may show the parent alone.

In one experiment the target is T1, HO-1 (rat spleen) (Rattus norvegicus, UniProt P06762).
T1 construct: Spleen microsomes were used as a source of HO-1; from tissue; host or cells: spleen microsomal fraction of adult male Sprague-Dawley rats
T1 sequence (P06762 1-289): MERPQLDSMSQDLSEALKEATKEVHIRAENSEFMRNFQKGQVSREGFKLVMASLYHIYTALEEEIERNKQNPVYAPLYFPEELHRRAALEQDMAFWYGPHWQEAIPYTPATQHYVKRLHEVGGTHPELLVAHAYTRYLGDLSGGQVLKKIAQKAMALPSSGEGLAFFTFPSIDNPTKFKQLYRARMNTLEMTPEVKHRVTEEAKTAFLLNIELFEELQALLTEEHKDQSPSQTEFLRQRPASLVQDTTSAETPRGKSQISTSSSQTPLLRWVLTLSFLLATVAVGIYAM
Kind of experiment: HO enzymatic activity in rat spleen microsomal fraction (CO formed from methemalbumin, gas chromatography). The class given is biochemical.
Settings: not given
Here is the method: (§1) Incubations for HO activity analysis were done under conditions for which the rate of CO formation (pmol CO×min^−1×mg protein^−1) was linear with respect to time and microsomal protein concentration. Briefly, reaction mixtures (150 μL) consisting of 100 mM phosphate buffer (pH 7.4), 50 μM methemalbumin, and 1 mg/mL protein were pre-incubated with the inhibitors at final concentrations ranging from 0.1-100 μM for 10 minutes at 37° C. Reactions were initiated by adding NADPH at a final concentration of 1 mM and incubations were performed for an additional 15 minutes at 37° C.
(§2) Incubations for HO activity analysis were done under conditions for which the rate of CO formation (pmol CO/mg protein/minute) was linear with respect to time and microsomal protein concentration. Briefly, reaction mixtures (150 μL) consisting of 100 mM phosphate buffer (pH 7.4), 50 μM methemalbumin and 1 mg/mL protein were pre-incubated with the vehicle (ethanol or water in which the inhibitors were dissolved), or inhibitors at final concentrations ranging from 0.1-1000 μM for 10 minutes at 37° C. Reactions were initiated by adding β-NADPH at a final concentration of 1 mM and incubations were carried out for an additional 15 minutes at 37° C. Reactions were stopped by instantly freezing the reaction mixture on pulverized dry ice and CO formation was measured by gas chromatography using a TA 3000R Process Gas Analyzer (Trace Analytical/Ametek, Newark, Del., USA).
(§3) The values on the abscissa represent the decimal logarithm of the inhibitor's concentration (in μM), whereas the values of the activity on the ordinate are expressed as a percentage of the control experiments without inhibitor.
(§4) The IC50 values for the replicate experiments were employed to generate the reported standard deviation value.
The molecule `Nc1ccc(SC[C@@H]2CO[C@](CCc3ccc(Cl)cc3)(Cn3ccnc3)O2)cc1` [(2S,4S)-2-[2-(4-chlorophenyl)ethyl]-2-[(1H-imidazol-1-yl)methyl]-4-[{(4-aminophenyl)thio}meth-yl]-1,3-dioxolane dihydrochloride] yielded an IC50 of 5 ± 2 µM.

Still in this experiment, the particulars now being: rat spleen microsomes; average ± standard deviation of replicate experiments; read-out: IC50 HO-1 (rat spleen)/μM.
Turning to `Clc1ccc(C(Cn2ccnc2)NCc2ccccc2)cc1` (racemic) [(±)-benzyl-[1-(4-chloro-phenyl)-2-imidazol-1-yl-ethyl]amine dihydrochloride], the IC50 worked out at 3.39 ± 0.08 µM.

Regarding `O=C(Cn1cnnc1)c1ccc(Cl)cc1`, the IC50 is over 100 µM.

As to `Fc1ccc(COC(Cn2ccnc2)c2ccc(CCc3ccccc3)cc2)cc1` (racemic) [(±)-1-[2-(4-fluoro-benzyloxy)-2-(4-phenethyl-phenyl)-ethyl]-1H-imidazole], the IC50 was about 7 µM.

With `O=C(CCc1ccc(Cl)cc1)Cn1ccnc1` [4-(4-chlorophenyl)-1-(1H-imidazol-1-yl)butan-2-one hydrochloride], the IC50 was found to be 4.7 ± 0.5 µM.

Turning to `O=C(Cn1cncn1)c1ccc2c(c1)CCCC2` [1-(5,6,7,8-tetrahydro-naphthalen-2-yl)-2-[1,2,4]triazol-1-yl-ethanone], the IC50 worked out at 0.24 ± 0.04 µM.

As to `Oc1ccc(SC[C@@H]2CO[C@@](CCc3ccc(Cl)cc3)(Cn3ccnc3)O2)cc1` [(2R,4S)-2-[2-(4-chlorophenyl)ethyl]-2-[(1H-imidazol-1-yl)methyl]-4-[{(4-hydroxyphenyl)thio}methyl]-1,3-dioxolane], the IC50 was found to be 1.59 ± 0.03 µM.

Consider `FC(F)(F)c1ccc(SC[C@@H]2CO[C@@](CCc3ccc(Cl)cc3)(Cn3ccnc3)O2)nc1` [(2R,4S)-2-[2-(4-chlorophenyl)ethyl]-2-[(1H-imidazol-1-yl)methyl]-4[{(5-trifluoromethyl-pyridin-2-yl)ethio}methyl]-1,3-dioxolane hydrochloride], for which the IC50 was found to be 2.1 ± 0.6 µM.

On to `O=C(CCc1ccc(Br)cc1)Cn1ccnc1` [4-(4-bromophenyl)-1-(1H-imidazol-1-yl)butan-2-one hydrochloride], for which the IC50 turned out to be 1.7 ± 0.7 µM.

In the case of `O=C(/C=C/c1ccccc1)CCn1ccnc1` [5-(1H-Imidazol-1-yl)-1-phenyl-pent-1-en-3-one hydrochloride], the IC50 was 22.6 ± 0.8 µM.

In the case of `Clc1ccc(CC[C@@]2(Cn3ccnc3)OCC(COc3ccc(-c4ccccc4)cc3)O2)cc1` (stereo in doubt) [(2R,4S)-1-{4-(biphenyl-4-yloxymethyl)-2-[2-(4-chloro-phenyl)-ethyl]-[1,3]dioxolan-2-ylmethyl}-1H-imidazole hydrochloride], the IC50 is 2 ± 1 µM.

On to `O=C(CCc1ccc(Br)cc1)Cn1cncn1` [4-(4-bromophenyl)-1-[1,2,4]triazol-1-yl-butan-2-one hydrochloride], for which the IC50 worked out at 0.39 ± 0.02 µM.

Turning to `O=C(Cn1ccnc1)c1ccc(Cl)c(Cl)c1` [1-(3,4-Dichloro-phenyl)-2-imidazol-1-yl-ethanone], the IC50 came to 1.24 ± 0.07 µM.

`COC(=O)c1cncn1CC(=O)CCc1ccccc1` [3-(2-Oxo-4-phenyl-butyl)-3H-imidazole-4-carboxylic acid methyl ester]: the IC50 is 69 ± 19 µM.

In the case of `OC(CCc1ccc(F)cc1)Cn1ccnc1` (centres unmarked) [4-(4-fluorophenyl)-1-(1H-imidazol-1-yl)butan-2-ol hydrochloride], the IC50 worked out at 1.4 ± 1.1 µM.

With `O=C(Cn1ccnc1)c1cccc2ccccc12` [2-imidazol-1-yl-1-naphthalen-1-yl-ethanone hydrochloride], the IC50 worked out at 2.2 ± 0.1 µM.

In the case of `Nc1ccccc1SC[C@@H]1CO[C@](CCc2ccc(Cl)cc2)(Cn2ccnc2)O1` [(2S,4S)-2-[2-(4-chlorophenyl)ethyl]-2-[(1H-imidazol-1-yl)methyl]-4-[{(2-aminophenyl)thio}meth-yl]-1,3-dioxolane dihydrochloride], the IC50 was 5 ± 0.3 µM.

As for `OC(CCc1ccc(Br)cc1)Cn1ccnc1` (racemic) [(±)-4-(4-bromophenyl)-1-(1H-imidazol-1-yl)butan-2-ol hydrochloride], the IC50 was 0.14 ± 0.06 µM.

On to `O=C(CCc1ccc(F)cc1)Cn1ccnc1` [4-(4-fluorophenyl)-1-(1H-imidazol-1-yl)butan-2-one hydrochloride], for which the IC50 amounted to 2.7 ± 0.9 µM.

In the case of `O=C(Cn1ccnc1)C12CC3CC(CC(C3)C1)C2` [1-(adamantan-1-yl)-2-imidazol-1-yl-ethanone hydrochloride], the IC50 was found to be 7 ± 1 µM.

On to `COc1ccc(C(=O)Cn2ccnc2)cc1` [2-Imidazol-1-yl-1-(4-methoxy-phenyl)-ethanone hydrochloride], for which the IC50 came out at 39 ± 13 µM.

Regarding `OC(Cn1cncn1)(Cn1cncn1)c1ccc(F)cc1F` [Fluconazole, reference compound], the IC50 is 80 ± 6 µM.

For `CC(=O)CCc1ccc(Br)cc1` [4-(4-bromophenyl)butan-2-one], the IC50 was over 100 µM.

The target of another experiment is T2, HO-2 (rat brain) (Rattus norvegicus, UniProt P23711).
T2 construct: brain microsomes were used as a source of HO-2; from tissue; host or cells: brain microsomal fraction of adult male Sprague-Dawley rats
T2 sequence (P23711 1-315): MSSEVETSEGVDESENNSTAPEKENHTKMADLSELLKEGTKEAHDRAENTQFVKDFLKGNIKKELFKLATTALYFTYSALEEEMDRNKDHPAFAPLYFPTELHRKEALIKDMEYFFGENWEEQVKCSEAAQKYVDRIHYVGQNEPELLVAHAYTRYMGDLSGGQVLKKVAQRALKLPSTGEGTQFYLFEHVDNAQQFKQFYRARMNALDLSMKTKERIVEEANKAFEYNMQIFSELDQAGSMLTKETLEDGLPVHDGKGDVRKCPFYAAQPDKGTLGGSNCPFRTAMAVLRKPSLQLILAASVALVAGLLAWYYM
Kind of experiment: HO enzymatic activity in rat brain microsomal fraction (CO formed from methemalbumin, gas chromatography). The class given is biochemical.
Settings: not given
As to the method: as §1, §2, §3, §4
Molecule `Nc1ccc(SC[C@H]2CO[C@@](CCc3ccc(Cl)cc3)(Cn3ccnc3)O2)cc1` [(2R,4R)-2-[2-(4-chlorophenyl)ethyl]-2-[(1H-imidazol-1-yl)methyl]-4-[{(4-aminophenyl)thio}meth-yl]-1,3-dioxolane dihydrochloride] returned an IC50 of over 100 µM.

Regarding `Nc1cccc(SC[C@H]2CO[C@@](CCc3ccc(Cl)cc3)(Cn3ccnc3)O2)c1` [(2R,4R)-2-[2-(4-chlorophenyl)ethyl]-2-[(1H-imidazol-1-yl)methyl]-4-[{(3-aminophenyl)thio}meth-yl]-1,3-dioxolane dihydrochloride], the IC50 was over 100 µM.

Staying with this experiment, now noted: rat brain microsomes; average ± standard deviation of replicate experiments; read-out: IC50 HO-2 (rat brain)/μM.
`Clc1ccc(C(Cn2ccnc2)NCc2ccccc2)cc1` (racemic) [(±)-benzyl-[1-(4-chloro-phenyl)-2-imidazol-1-yl-ethyl]amine dihydrochloride]: the IC50 stood at 22 ± 4 µM.

In the case of `O=C(Cn1cnnc1)c1ccc(Cl)cc1`, the IC50 was over 100 µM.

Turning to `Fc1ccc(COC(Cn2ccnc2)c2ccc(CCc3ccccc3)cc2)cc1` (racemic) [(±)-1-[2-(4-fluoro-benzyloxy)-2-(4-phenethyl-phenyl)-ethyl]-1H-imidazole], the IC50 is over 100 µM.

Consider `CC(C)(C(=O)c1ccccc1)n1ccnc1` [2-Imidazol-1-yl-2-methyl-1-phenyl-propan-1-one], for which the IC50 was over 100 µM.

Consider `O=C(Cn1cncn1)c1ccc2c(c1)CCCC2` [1-(5,6,7,8-tetrahydro-naphthalen-2-yl)-2-[1,2,4]triazol-1-yl-ethanone], for which the IC50 amounted to 4 ± 1 µM.

For `Oc1ccc(SC[C@@H]2CO[C@@](CCc3ccc(Cl)cc3)(Cn3ccnc3)O2)cc1` [(2R,4S)-2-[2-(4-chlorophenyl)ethyl]-2-[(1H-imidazol-1-yl)methyl]-4-[{(4-hydroxyphenyl)thio}methyl]-1,3-dioxolane], the IC50 amounted to 7 ± 2 µM.

Regarding `FC(F)(F)c1ccc(SC[C@@H]2CO[C@@](CCc3ccc(Cl)cc3)(Cn3ccnc3)O2)nc1` [(2R,4S)-2-[2-(4-chlorophenyl)ethyl]-2-[(1H-imidazol-1-yl)methyl]-4[{(5-trifluoromethyl-pyridin-2-yl)ethio}methyl]-1,3-dioxolane hydrochloride], the IC50 was found to be 16 ± 8 µM.

Take `COc1ccc(CCN2CCC(Nc3nc4ccccc4n3Cc3ccc(F)cc3)CC2)cc1` [Astemizole, reference compound]: the IC50 came out at 30 ± 5 µM.

As to `Brc1ccc(C2(Cn3cncn3)OCCO2)cc1` [1-[2-(4-bromo-phenyl)-[1,3]dioxolan-2-ylmethyl]-1H-[1,2,4]triazole], the IC50 was over 100 µM.

As to `Nc1ccccc1SC[C@H]1CO[C@@](CCc2ccc(Cl)cc2)(Cn2ccnc2)O1` [(2R,4R)-2-[2-(4-chlorophenyl)ethyl]-2-[(1H-imidazol-1-yl)methyl]-4-[{(2-aminophenyl)thio}meth-yl]-1,3-dioxolane dihydrochloride], the IC50 is over 100 µM.

With `O=C(CCc1ccccc1)Cn1nccn1` [4-phenyl-1-[1,2,3]triazol-2-yl-butan-2-one], the IC50 is over 100 µM.

For the molecule `O=C(CCc1ccccc1)Cn1cccn1` [4-phenyl-1-pyrazol-1-yl-butan-2-one hydrochloride], the IC50 is over 100 µM.

Regarding `Ic1ccc(CCC2(Cn3ccnc3)OCCO2)cc1` [2-[2-(4-iodophenyl)ethyl]-2-[(1H-imidazol-1-yl)methyl]-1,3-dioxolane hydrochloride], the IC50 is over 100 µM.

On to `O=C(CCc1ccccc1)Cn1ccnn1` [4-phenyl-1-(1H-[1,2,3]triazol-1-yl)butan-2-one], for which the IC50 was over 100 µM.

On to `Fc1ccc(CCC2(Cn3ccnc3)OCCO2)cc1` [2-[2-(4-fluorophenyl)ethyl]-2-[(1H-imidazol-1-yl)methyl]-1,3-dioxolane hydrochloride], for which the IC50 is over 100 µM.

Consider `O=C(CCc1ccccc1)Cn1cnnn1` [4-Phenyl-1-tetrazol-1-yl-butan-2-one hydrochloride], for which the IC50 was 30 ± 4 µM.
